From ChEMBL document CHEMBL3739375, “Identifying farnesoid X receptor agonists by naive Bayesian and recursive partitioning approaches” (Medchemcomm, 2015)
pEC50: −log10 of the molar value.

Tests used:
[1] = biological target: T1, Bile acid receptor (Homo sapiens) (UniProt Q96RI1); assay: (§1) Agonist activity at human farnesoid-X-receptor expressed in HEK293T cells co-expressing human RXRalpha assessed as receptor activation after 20 hrs by dual luciferase reporter assay; type: cell-based; conditions: HEK-293T
T1 sequence (whole entry): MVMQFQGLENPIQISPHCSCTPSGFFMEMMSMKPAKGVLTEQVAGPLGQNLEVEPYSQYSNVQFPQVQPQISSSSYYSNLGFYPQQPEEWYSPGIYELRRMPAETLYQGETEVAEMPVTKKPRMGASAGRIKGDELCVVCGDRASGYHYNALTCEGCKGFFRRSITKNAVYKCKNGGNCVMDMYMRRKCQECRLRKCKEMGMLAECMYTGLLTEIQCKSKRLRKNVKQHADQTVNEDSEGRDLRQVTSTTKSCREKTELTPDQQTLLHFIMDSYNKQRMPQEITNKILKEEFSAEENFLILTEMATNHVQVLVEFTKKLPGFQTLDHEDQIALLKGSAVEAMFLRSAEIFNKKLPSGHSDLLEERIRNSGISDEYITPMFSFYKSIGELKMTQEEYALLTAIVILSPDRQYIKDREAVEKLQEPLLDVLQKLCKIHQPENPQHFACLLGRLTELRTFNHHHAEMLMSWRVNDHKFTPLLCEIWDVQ

Bile acid receptor = biological target: T2, Bile acid receptor (Homo sapiens, UniProt Q96RI1); assay: as §1; type: cell-based, HEK-293T
T2 sequence (Q96RI1 whole entry): T1 sequence (whole entry)

Activity [1]	pEC50 (Bile acid receptor)	Compound
Dose-dependent effect	4.81	CC(C)(C)OC(=O)/N=C(\NCCCc1cc(C(=O)NCc2ccncc2)no1)NC(=O)OC(C)(C)C
Dose-dependent effect	4.52	CC(C)(C)OC(=O)/N=C(/NCCc1cc(NC(=O)Nc2ccncc2)no1)NC(=O)OC(C)(C)C
